Measured values from patent publication US7754228B2, “Cytotoxic T-cell epitopes from Chlamydia” (Novartis Vaccines and Diagnostics, Srl, priority 2002, dated 2010).
“Also recorded” adds a separate entry of the source. Like-named read-outs stand apart in the source and are kept apart here.

Test system: HLA A2
Assay type: binding, human
Conditions: for Mean 1 / Mean 2 / binding to HLA A2 (in words): RMA-S/A2 cells; for Mean 1: peptide and only anti-mouse secondary antibody; for Mean 1 / Mean 2: FACS mean; for Mean 2: peptide, anti-A2 Mab BB7.2 and secondary antibody; for binding to HLA A2 (in words): in vitro binding assay

Row | Sequence | High - B | Δ Mean | Mean 1 (100 μM peptide) | Mean 2 (100 μM peptide) | binding to HLA A2 (in words) | Mean 1 (1 μM peptide) | Mean 2 (1 μM peptide) | Mean 1 (10 μM peptide) | Mean 2 (10 μM peptide) | ΔMean at high concentrations of peptide (in words) (high peptide concentrations, non-homogeneous fluorescent signal, most likely non-specific effects)
1 | ALMLLNNYV (listed as Chlamydia pneumoniae) [CH20] | 138 | 384 | 194 | 578 | bind to HLA A2 | – | – | – | – | –
2 | ALWGHNVLL (listed as Chlamydia pneumoniae) [CH55] | 98 | 258 | 153 | 411 | bind to HLA A2; also recorded: positive in the binding assay | – | – | – | – | –
3 | ALWKENQAL (listed as Chlamydia pneumoniae) [CH54] | 91 | 251 | 140 | – | bind to HLA A2; also recorded: positive in the binding assay | – | – | – | – | –
4 | FLFQLGMQI [CH62] | 19 | 179 | 126 | 305 | – | – | – | – | – | –
5 | FLQRGESFV [CH30] | 89 | 243 | 155 | 398 | bind to HLA A2 | – | – | – | – | –
6 | FLTLAWWFI [CH8] | 82 | 328 | – | – | bind to HLA A2 | 204 | 532 | – | – | –
7 | FVSKFWFSL [CH57] | −17 | – | – | – | – | 127 | 270 | – | – | –
8 | IALLVIFFV [CH18] | 0 | 230 | – | – | do not seem to bind | – | – | 198 | 428 | –
9 | ILLNEVPYV [CH2] | 133 | 372 | – | – | bind to HLA A2 | – | – | 264 | 636 | –
10 | ILQEAEQMV [CH17] | 140 | 386 | 185 | 571 | bind to HLA A2 | – | – | – | – | –
11 | ILSFLPWLV [CH35] | 86 | 240 | – | – | bind to HLA A2 | – | – | 171 | 411 | –
12 | KLLAFPAFA [CH40] | 96 | 341 | 214 | 555 | bind to HLA A2 | – | – | – | – | –
13 | KLLKDHFDL (listed as Chlamydia pneumoniae) [CH34] | 81 | 235 | 155 | 390 | bind to HLA A2 | – | – | – | – | –
14 | KLSEQLEAL [CH41] | 101 | 261 | 162 | 423 | bind to HLA A2; also recorded: positive in the binding assay | – | – | – | – | –
15 | KLWEWLGYL [CH32] | 63 | 217 | – | – | bind to HLA A2 | – | – | 161 | 378 | –
16 | KMSHFQQAL [CH49] | 23 | 183 | 134 | 317 | – | – | – | – | – | –
17 | KVLLGQEWV [CH42] | 40 | 200 | 136 | 336 | bind to HLA A2 | – | – | – | – | –
18 | LIQETLLFV [CH24] | 75 | 229 | 165 | 394 | bind to HLA A2 | – | – | – | – | –
19 | LLLIFNNYL [CH36] | −16 | 138 | – | – | do not seem to bind | 163 | 301 | – | – | –

Row | Sequence | High - B | Δ Mean | Mean 1 (100 μM peptide) | Mean 2 (100 μM peptide) | binding to HLA A2 (in words) | Mean 1 (1 μM peptide) | Mean 2 (1 μM peptide) | Mean 1 (10 μM peptide) | Mean 2 (10 μM peptide) | ΔMean at high concentrations of peptide (in words) (high peptide concentrations, non-homogeneous fluorescent signal, most likely non-specific effects)
20 | LLLTLGYAV (listed as Chlamydia pneumoniae) [CH19] | 0 | 240 | 196 | 436 | do not seem to bind | – | – | – | – | –
21 | LLMLAISLV [CH33] | 0 | 154 | – | – | do not seem to bind | 164 | 318 | – | – | –
22 | NLAEQVTAL [CH43] | – | 286 | 153 | 439 | bind to HLA A2; also recorded: positive in the binding assay | – | – | – | – | –
23 | NLAGGILSV (listed as Chlamydia pneumoniae) [CH56] | 80 | 240 | 143 | 383 | bind to HLA A2; also recorded: positive in the binding assay | – | – | – | – | –
24 | NLLKRWQFV [CH38] | 73 | 227 | 170 | 397 | bind to HLA A2 | – | – | – | – | –
25 | NLSISVFLL [CH46] | 12 | 172 | 131 | 303 | – | – | – | – | – | –
26 | NLSRQAFFA (listed as Chlamydia pneumoniae) [CH51] | 19 | 179 | 132 | 311 | – | – | – | – | – | –
27 | NLWSHYTDL (listed as Chlamydia pneumoniae) [CH53] | 48 | 209 | 141 | 350 | bind to HLA A2 | – | – | – | – | –
28 | QLLDEGKEL [CH1] | 37 | 283 | 206 | 489 | bind to HLA A2 | – | – | – | – | –
29 | QLLESLAPL [CH4] | 58 | 304 | 212 | 516 | bind to HLA A2 | – | – | – | – | –
30 | RLLEIIWGV [CH28] | 78 | 232 | – | – | bind to HLA A2 | – | – | 158 | 390 | –
31 | SILELLQFV [CH5] | 71 | 298 | – | – | bind to HLA A2 | – | – | 179 | 477 | –
32 | SLCAQSSYV (listed as Chlamydia pneumoniae) [CH50] | 91 | 251 | 130 | 381 | bind to HLA A2; also recorded: positive in the binding assay | – | – | – | – | –
33 | SLLEEHPVV (listed as Chlamydia pneumoniae) [CH52] | 89 | 249 | 147 | 396 | bind to HLA A2; also recorded: positive in the binding assay | – | – | – | – | –
34 | TLWGSFVDV (listed as Chlamydia pneumoniae) [CH21] | 121 | 275 | 165 | 440 | bind to HLA A2 | – | – | – | – | –
35 | VIQAFGDFV [CH47] | 17 | 177 | – | – | – | – | – | 125 | 302 | –
36 | VLFLLIRSV [CH61] | −37 | 123 | – | – | – | 135 | 258 | – | – | –
37 | VLNLFFSAL (listed as Chlamydia pneumoniae) [CH3] | 0 | 224 | – | – | – | 195 | 419 | – | – | Very low ΔMean values
38 | VMLFIGLGV [CH60] | −27 | 133 | – | – | – | – | – | 148 | 281 | –
